Earlier results in patent US12128086B2, “Formulations and methods of use for alpha connexin c-terminal (ACT) peptides” (XEQUEL BIO, INC., priority 2012, dated 2024).
Where two headings read alike, the source gives them in different places.

Experiments:
[1] = tested on: full thickness excisional wounds; details: pigs; 100 μM of ACT1 peptide; 5 mm full thickness excisional wounds
[2] = tested on: full thickness excisional wounds; details: adult mice; 100 μM of ACT1 peptide; 5 mm full thickness excisional wounds

Substance: Biotin-Ahx-Arg-Gln-Pro-Lys-lle-Trp-Phe-Pro-Asn-Arg-Arg-Lys-Pro-Trp-Lys-Lys-Arg-Pro-Arg-Pro-Asp-Asp-Leu-Glu-lle-OH [Peptide 328967]
- Wound healing versus vehicle control (in words) [1]: closed faster, appeared less swollen and inflamed, and healed with a smoother and less discolored appearance
- Wound healing versus vehicle control (in words) [2]: closed faster, appeared less swollen and inflamed, and healed with a smoother and less discolored appearance
